Measured values: ChEMBL document CHEMBL5120831, “Pep5-based antitumor peptides containing multifunctional fragments with enhanced activity and synergistic effect” (Eur J Med Chem, 2022)
pIC50: −log10 of the molar value. Active and inactive are the calls of the source. No cut-off for these calls is given here. Numbered stars: 1 amine (or outer) side, 2 acyl side, 3 side chain; on linkers, the order of the positions; unused ones are H or OH. Bridge positions count the residues as written; N and C are the ends. Square brackets hold non-standard residues; d marks the D form. I, II: the chains in the order shown. X1 = O=C([C@H](Cc1c[nH]c2ccccc12)N(c1ccc([N+](=O)[O-])c2nonc12)[*:1])[*:2]

Tests used:
HepG2 [1] = assay: Cytotoxicity against human HepG2 cells assessed as reduction in cell viability measured after 24 hrs by CCK-8 assay; assay type: functional, cell-based; settings: HepG2, 24 h
[2] = Cytotoxicity against human L02 cells assessed as reduction in cell viability measured after 24 hrs by CCK-8 assay; assay type: toxicity, cell-based
A549 [3] = assay: Cytotoxicity against human A549 cells assessed as reduction in cell viability measured after 24 hrs by CCK-8 assay; assay type: functional, cell-based; settings: A549, 24 h
[4] = Cytotoxicity against human BEAS-2B cells assessed as reduction in cell viability measured after 24 hrs by CCK-8 assay; assay type: toxicity, cell-based
HepG2 [5] = assay: Induction of morphological changes in human HepG2 cells assessed as appearance of broken cell structure at 15 uM measured after 24 hrs by high-throughput microscopy; assay type: functional, cell-based
L02 = assay: Induction of apoptosis in human L02 cells assessed as reduction in viable cells at 15 uM measured after 24 hrs by Annexin V-FITC/propidium iodide staining based flow cytometry; assay type: toxicity, cell-based; settings: l02, 24 h
BEAS-2B = assay: Induction of apoptosis in human BEAS-2B cells assessed as reduction in viable cells at 15 uM measured after 24 hrs by Annexin V-FITC/propidium iodide staining based flow cytometry; assay type: toxicity, cell-based
HepG2 [6] = assay: Induction of apoptosis in human HepG2 cells assessed as appearance of apoptotic bodies at 15 uM measured after 24 hrs by transmission electron microscopy; assay type: functional, cell-based
HepG2 [7] = assay: Induction of apoptosis in human HepG2 cells assessed as chromatin condensation at 15 uM measured after 24 hrs by transmission electron microscopy; assay type: functional, cell-based
HepG2 [8] = assay: Induction of apoptosis in human HepG2 cells assessed as swollen mitochondria at 15 uM measured after 24 hrs by transmission electron microscopy; assay type: functional, cell-based
HepG2 [9] = assay: Induction of apoptosis in human HepG2 cells assessed as hollow mitochondria at 15 uM measured after 24 hrs by transmission electron microscopy; assay type: functional, cell-based
HepG2 [10] = assay: Induction of apoptosis in human HepG2 cells assessed as cell membrane disruption at 15 uM measured after 24 hrs by transmission electron microscopy; assay type: functional, cell-based
HepG2 [11] = assay: Induction of necrosis in human HepG2 cells assessed as cell membrane disruption at 30 uM measured after 24 hrs by transmission electron microscopy; assay type: functional, cell-based
HepG2 [12] = assay: Induction of necrosis in human HepG2 cells assessed as releasing of large number of cell content into extracellular space at 30 uM measured after 24 hrs by transmission electron microscopy; assay type: functional, cell-based
A549 [13] = assay: Induction of apoptosis in human A549 cells assessed as appearance of apoptotic bodies at 15 uM measured after 24 hrs by transmission electron microscopy; assay type: functional, cell-based
A549 [14] = assay: Induction of apoptosis in human A549 cells assessed as chromatin condensation at 15 uM measured after 24 hrs by transmission electron microscopy; assay type: functional, cell-based
A549 [15] = assay: Induction of apoptosis in human A549 cells assessed as swollen mitochondria at 15 uM measured after 24 hrs by transmission electron microscopy; assay type: functional, cell-based
A549 [16] = assay: Induction of apoptosis in human A549 cells assessed as hollow mitochondria at 15 uM measured after 24 hrs by transmission electron microscopy; assay type: functional, cell-based
A549 [17] = assay: Induction of apoptosis in human A549 cells assessed as cell membrane disruption at 15 uM measured after 24 hrs by transmission electron microscopy; assay type: functional, cell-based
A549 [18] = assay: Induction of necrosis in human A549 cells assessed as cell membrane disruption at 30 uM measured after 24 hrs by transmission electron microscopy; assay type: functional, cell-based
A549 [19] = assay: Induction of necrosis in human A549 cells assessed as releasing of large number of cell content into extracellular space at 30 uM measured after 24 hrs by transmission electron microscopy; assay type: functional, cell-based
A549 [20] = assay: Induction of cell membrane disruption in human A549 cells assessed as increase in LDH release at 15 uM measured after 1 hr by LDH releasing reagent based assay
HepG2 [21] = assay: Induction of cell membrane disruption in human HepG2 cells assessed as increase in LDH release at 15 uM measured after 1 hr by LDH releasing reagent based assay
Proteasome = assay: Inhibition of proteasome activity in human A549 cells measured after 4 hrs by luciferase assay; settings: dose 5-30 µM, DDE = dose-dependent effect
HepG2 [22] = assay: Induction of ROS generation in human HepG2 cells at 10 to 30 uM measured after 4 hrs by DCFH-DA reagent based fluorescence assay; assay type: functional, cell-based; settings: dose 10-30 µM
HepG2 [23] = assay: Antitumor activity against human HepG2 cells xenografted in sc dosed BALB/c nude mouse assessed as tumor growth inhibition administered at 1 day interval for 9 days; assay type: functional, organism-based; settings: dose 25-50 µM, time 9.0 day, DDE = dose-dependent effect
HepG2 [24] = assay: Antitumor activity against human HepG2 cells xenografted in BALB/c nude mouse assessed as reduction in tumor volume at 25 to 50 uM, sc administered at 1 day interval for 9 days; assay type: functional, organism-based; settings: dose 25-50 µM, time 9.0 day
[25] = Toxicity in HepG2 cell xenografted BALB/c nude mouse assessed as change in body weight at 25 to 50 uM, sc administered at 1 day interval for 9 days; assay type: organism-based; settings: in vivo, 216 h, dose 25-50 µM, time 9 day
HepG2 [26] = assay: Antitumor activity against human HepG2 cells xenografted in BALB/c nude mouse assessed as appearance of fuzzy boundary region at 25 to 50 uM, sc administered at 1 day interval for 9 days and measured on day 11 by H and E staining based histological analysis; assay type: functional, organism-based; settings: dose 25-50 µM, time 11.0 day
HepG2 [27] = assay: Antitumor activity against human HepG2 cells xenografted in BALB/c nude mouse assessed as missing nuclei at 25 to 50 uM, sc administered at 1 day interval for 9 days and measured on day 11 by H and E staining based histological analysis; assay type: functional, organism-based; settings: dose 25-50 µM, time 11.0 day
HepG2 [28] = assay: Antitumor activity against human HepG2 cells xenografted in BALB/c nude mouse assessed as induction of apoptosis at 25 to 50 uM, sc administered at 1 day interval for 9 days and measured on day 11 by TUNEL staining based assay; assay type: functional, organism-based; settings: dose 25-50 µM, time 11.0 day
[29] = Drug uptake in human HepG2 cells at 15 uM measured after 1 hr by Hoechst 33258 staining based confocal laser scanning microscopy; assay type: ADME, cell-based; settings: hepg2, 1 h
[30] = Drug uptake in human A549 cells at 15 uM measured after 1 hr by Hoechst 33258 staining based confocal laser scanning microscopy; assay type: ADME, cell-based; settings: a549, 1 h
[31] = Drug uptake in human L02 cells at 15 uM measured after 1 hr by Hoechst 33258 staining based confocal laser scanning microscopy; assay type: ADME, cell-based; settings: l02, 1 h
[32] = Drug uptake in human BEAS-2B cells at 15 uM measured after 1 hr by Hoechst 33258 staining based confocal laser scanning microscopy; assay type: ADME, cell-based
[33] = Drug uptake in human HepG2 cells at 15 uM measured after 1 hr by Hoechst 33258 staining based flow cyotmetry; assay type: ADME, cell-based; settings: hepg2, 1 h
[34] = Drug uptake in human A549 cells at 15 uM measured after 1 hr by Hoechst 33258 staining based flow cyotmetry; assay type: ADME, cell-based; settings: a549, 1 h
[35] = Drug uptake in human L02 cells at 15 uM measured after 1 hr by Hoechst 33258 staining based flow cyotmetry; assay type: ADME, cell-based; settings: l02, 1 h
[36] = Drug uptake in human BEAS-2B cells at 15 uM measured after 1 hr by Hoechst 33258 staining based flow cyotmetry; assay type: ADME, cell-based
[37] = Drug uptake in human HepG2 cells membrane at 15 uM measured after 15 mins by Hoechst 33258/Lyso-Tracker Red staining based flow cytometry; assay type: ADME, cell membranes, Cell membrane; settings: hepg2, 0.25 h
[38] = Drug uptake in endosome of human HepG2 cells at 15 uM measured after 30 mins by Hoechst 33258/Lyso-Tracker Red staining based flow cytometry; assay type: ADME; settings: hepg2, 0.5 h
[39] = Drug uptake in cytoplasm of human HepG2 cells at 15 uM measured after 60 mins by Hoechst 33258/Lyso-Tracker Red staining based flow cytometry; assay type: ADME, subcellular; settings: hepg2, 1 h
[40] = Drug uptake in human HepG2 cells at 15 uM measured after 60 to 120 mins by Hoechst 33258/Lyso-Tracker Red staining based flow cytometry; assay type: ADME, cell-based; settings: hepg2, 15 µM, time 60-120 min

Substance “I: H-WELVVLGKLLLHHLLHHLLHHGLRKRLRKFRNKIKEK / II: H-GLRKRLRKFRNKIKEK-NH2 (amide I:C-II:4)” has a pIC50 (HepG2 [1]) of 5.11, an IC50 at 24 h [2] of 11.1 µM and a pIC50 (A549 [3]) of 5.19. For the same substance, the IC50 at 24 h [4] was 11.2 µM, the Activity (HepG2 [5]) was “Active” and the Activity (L02) was “Non-Toxic”. For the same substance, the Activity (BEAS-2B) was “Non-Toxic”, the Activity (HepG2 [6]) was “Active” and the Activity (HepG2 [7]) was “Active”. The Activity (HepG2 [8]) was “Active”, the Activity (HepG2 [9]) was “Active” and the Activity (HepG2 [10]) was “Active”. For the same substance, the Activity (HepG2 [11]) was “Active”, the Activity (HepG2 [12]) was “Active” and the Activity (A549 [13]) was “Active”. For the same substance, the Activity (A549 [14]) was “Active”, the Activity (A549 [15]) was “Active” and the Activity (A549 [16]) was “Active”. The Activity (A549 [17]) was “Active”, the Activity (A549 [18]) was “Active” and the Activity (A549 [19]) was “Active”. For the same substance, the Activity (A549 [20]) was “Active”, the Activity (HepG2 [21]) was “Active” and the inhibition (Proteasome) was “Dde”. The Activity (HepG2 [22]) was “Active”, the TGI (HepG2 [23]) was “Dde” and the Activity (HepG2 [24]) was “Active”. The Activity [25] was “Non-Toxic”, the Activity (HepG2 [26]) was “Active” and the Activity (HepG2 [27]) was “Active”. For the same substance, the Activity (HepG2 [28]) was “Active”.
In the case of “I: H-[X1]ELVVLGKLLLHHLLHHLLHHGLRKRLRKFRNKIKEK / II: H-GLRKRLRKFRNKIKEK-NH2 (amide I:C-II:4)”, the Drug uptake [29] was “Active”, the Drug uptake [30] was “Active” and the Drug uptake [31] was “Active”. For the same substance, the Drug uptake [32] was “Active”, the Drug uptake [33] was “Active” and the Drug uptake [34] was “Active”. The Drug uptake [35] was “Active”, the Drug uptake [36] was “Active” and the Drug uptake [37] was “Active”. The Drug uptake [38] was “Active”, the Drug uptake [39] was “Active” and the Drug uptake [40] was “Active”.
